Assay [1] concerns HEK293. Kind of assay: inhibition of NOD1-driven NF-kB reporter – cell-based, luminescence, uHTS, primary screen (AID 1578). It is filed as functional. As to conditions: Homo sapiens.
Assay [2] has as its system HEK293. Kind of assay: cells. It is filed as functional, cell-based. As to conditions: Homo sapiens.
For assay [3], the system named is HEK293. The experiment in a line: cells. It is filed as functional, cell-based. As to conditions: Homo sapiens. This is another data set of the same source.
Assay [4] addresses Nucleotide-binding oligomerization domain-containing protein 2 (Homo sapiens, UniProt Q9HC29). Kind of assay: inhibition of NOD2-driven NF-kB reporter – cell-based, luminescence, uHTS, HEK293 (AID 1566). It is filed as functional.
For assay [5], the system named is HEK293. Kind of assay: NOD2 signaling inhibitors in MDP-stimulated cells, cell-based, uHTS, luminescence (AID 2001). As to conditions: Homo sapiens. It is filed as functional.
The subject of assay [6] is HEK293. The experiment in a line: cells. The class given is functional, cell-based. As to conditions: Homo sapiens. The source holds these as a separate data set.
Assay [7] deals with Tumor necrosis factor (Homo sapiens, UniProt P01375). The experiment in a line: analog potency on TNFa NF-kB signaling – cell-based, revised, SAR follow-up (AID 2337). The class given is functional.
Sequence of Tumor necrosis factor (P01375 whole entry, the tested form may be a part): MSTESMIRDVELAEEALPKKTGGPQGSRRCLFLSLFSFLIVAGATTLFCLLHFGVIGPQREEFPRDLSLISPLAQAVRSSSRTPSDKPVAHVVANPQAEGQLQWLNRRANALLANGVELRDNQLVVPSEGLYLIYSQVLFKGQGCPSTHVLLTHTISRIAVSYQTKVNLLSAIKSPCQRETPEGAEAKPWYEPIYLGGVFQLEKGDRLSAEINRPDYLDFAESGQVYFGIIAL
The target of assay [8] is T1, Nucleotide-binding oligomerization domain-containing protein 1 (Homo sapiens, UniProt Q9Y239).
T1 sequence (Q9Y239 whole entry): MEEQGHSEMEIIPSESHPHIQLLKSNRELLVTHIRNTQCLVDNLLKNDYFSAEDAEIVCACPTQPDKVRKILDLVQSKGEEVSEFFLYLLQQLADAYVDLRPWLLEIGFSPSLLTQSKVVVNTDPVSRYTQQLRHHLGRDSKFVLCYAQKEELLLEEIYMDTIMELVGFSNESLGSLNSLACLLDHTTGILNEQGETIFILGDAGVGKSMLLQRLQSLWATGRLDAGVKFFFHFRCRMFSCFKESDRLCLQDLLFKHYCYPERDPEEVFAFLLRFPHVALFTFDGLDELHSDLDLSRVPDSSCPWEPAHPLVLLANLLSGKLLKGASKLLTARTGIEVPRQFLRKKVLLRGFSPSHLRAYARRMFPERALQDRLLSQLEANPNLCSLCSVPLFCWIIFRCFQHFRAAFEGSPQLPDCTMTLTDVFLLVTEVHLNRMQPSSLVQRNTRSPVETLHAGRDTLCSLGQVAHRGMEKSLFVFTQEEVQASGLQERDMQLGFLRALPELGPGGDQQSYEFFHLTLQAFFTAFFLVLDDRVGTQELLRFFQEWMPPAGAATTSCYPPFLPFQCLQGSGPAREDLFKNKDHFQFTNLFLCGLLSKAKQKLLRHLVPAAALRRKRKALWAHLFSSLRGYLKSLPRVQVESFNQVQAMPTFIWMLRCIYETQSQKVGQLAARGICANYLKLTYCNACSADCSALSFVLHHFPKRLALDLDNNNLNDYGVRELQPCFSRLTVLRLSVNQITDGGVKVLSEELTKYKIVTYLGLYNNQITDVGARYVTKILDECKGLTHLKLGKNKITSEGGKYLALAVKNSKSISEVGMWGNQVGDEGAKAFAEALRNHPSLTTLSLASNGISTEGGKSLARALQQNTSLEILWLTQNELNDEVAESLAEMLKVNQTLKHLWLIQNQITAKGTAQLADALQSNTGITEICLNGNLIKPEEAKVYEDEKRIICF
Kind of assay: blockers of NOD1 pathway activity – revised, SAR follow-up (AID 2333). The class given is functional.

For assay [9], the target named is T2, X-box-binding protein 1 (Homo sapiens, UniProt P17861).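 Note: confirmatory dose-response counter-screen serving a CHOP assay.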
T2 sequence (P17861 whole entry): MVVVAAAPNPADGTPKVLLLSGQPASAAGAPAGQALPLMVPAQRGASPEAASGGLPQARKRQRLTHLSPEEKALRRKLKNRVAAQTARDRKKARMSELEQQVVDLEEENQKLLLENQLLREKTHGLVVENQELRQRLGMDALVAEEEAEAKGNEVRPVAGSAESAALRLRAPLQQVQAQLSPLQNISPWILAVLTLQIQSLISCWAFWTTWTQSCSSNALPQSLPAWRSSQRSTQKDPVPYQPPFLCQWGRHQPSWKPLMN
It is filed as functional, Cricetulus griseus.

For assay [10], the system named is HEK293. The experiment in a line: cells. As to conditions: Homo sapiens.
Assay [11] is described as follows: viability of uninfected HEp-2 cells – cell-based, HTS, cytotoxicity control for RSV inhibitor project, dose response (AID 2410). The class given is functional. As to conditions: human respiratory syncytial virus.
Assay [12] is described as follows: Luminescence Cell-Based Dose Confirmation HTS to Identify Activators of 5'UTR Stem-Loop Driven Alpha-Synuclein mRNA Translation in H4 Neuroglioblastoma Cells. [Related pubchem assays: 1829 (Project Summary), 1814 (Primary HTS)]. It is filed as functional.
A short description of assay [13]: decrease of insulin promoter-GFP reporter – imaging, high-content screening, mouse beta cells (AID 1628). As to conditions: MIN6. It is filed as functional.
The nature of assay [14]: Luminescence Cell-Based Dose Response HTS to Identify Activators of Luciferase Translation or Activity in H4 […] Cells. [Related pubchem assays: 1829 (Project Summary), 1814 (Primary HTS)]. It is filed as functional.
Assay [15] in a line: MIN6 cell viability loss – mouse insulinoma, cytotoxicity control, dose response (AID 2122).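 Note: confirmatory high-throughput counterscreen run to flag cytotoxic compounds.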 The class given is functional.
Assay [16] has as its system H4. The experiment in a line: Luminescence Cell-Based Dose Response HTS to Identify Activators of 5'UTR Stem-Loop Driven Prion Protein mRNA Translation in H4 Neuroglioblastoma Cells. [Related pubchem assays: 1829 (Project Summary), 1814 (Primary HTS)]. It is filed as functional. As to conditions: Homo sapiens.
Assay [17] in a line: microbe, parasite or virus in culture. The class given is functional. As to conditions: Mycobacterium tuberculosis.
Assay [18] concerns INS1. Kind of assay: INS-1E survival protection against cytokine death – cell-based, luminescence, retest, dose response (AID 449756).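 Note: cell death triggered by IL-1 beta plus TNF-alpha plus IFN-gamma mixture; protective hits raise ATP signal compared with cytokine alone wells.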 The class given is functional. As to conditions: Rattus norvegicus.
For assay [19], the target named is Disintegrin and metalloproteinase domain-containing protein 17 (Homo sapiens, UniProt P78536). Kind of assay: exosite inhibitors of ADAM17, dose response, biochemical (AID 743260).
Sequence of Disintegrin and metalloproteinase domain-containing protein 17 (P78536 whole entry, the tested form may be a part): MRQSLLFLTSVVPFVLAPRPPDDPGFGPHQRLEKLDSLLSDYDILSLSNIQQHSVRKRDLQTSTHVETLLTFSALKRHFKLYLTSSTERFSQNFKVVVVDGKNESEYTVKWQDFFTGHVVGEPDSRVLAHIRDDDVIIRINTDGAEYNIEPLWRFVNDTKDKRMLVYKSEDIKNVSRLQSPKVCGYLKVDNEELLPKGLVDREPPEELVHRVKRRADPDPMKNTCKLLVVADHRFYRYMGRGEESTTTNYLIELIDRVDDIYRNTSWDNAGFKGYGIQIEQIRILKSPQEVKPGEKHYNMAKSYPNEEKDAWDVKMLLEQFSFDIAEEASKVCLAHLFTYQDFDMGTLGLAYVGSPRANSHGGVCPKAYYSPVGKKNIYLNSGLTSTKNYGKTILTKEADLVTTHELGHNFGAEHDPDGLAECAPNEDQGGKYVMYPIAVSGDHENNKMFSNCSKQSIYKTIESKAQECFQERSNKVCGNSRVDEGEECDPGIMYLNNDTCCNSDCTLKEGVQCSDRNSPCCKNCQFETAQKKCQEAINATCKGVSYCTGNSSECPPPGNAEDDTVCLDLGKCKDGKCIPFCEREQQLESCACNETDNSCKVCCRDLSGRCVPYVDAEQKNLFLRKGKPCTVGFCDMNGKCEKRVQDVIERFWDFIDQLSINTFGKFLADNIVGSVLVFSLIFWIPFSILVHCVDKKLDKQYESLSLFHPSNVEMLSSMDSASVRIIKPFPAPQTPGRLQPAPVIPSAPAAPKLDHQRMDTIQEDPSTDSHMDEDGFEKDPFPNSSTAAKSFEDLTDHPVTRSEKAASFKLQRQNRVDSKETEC
Assay [20] in a line: inhibition of ADAM10 peptide cleavage – biochemical, FRET peptide substrate, recombinant human ADAM10, selectivity assay for ADAM17 exosite inhibitor project, dose response (AID 743259).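 Note: ADAM10 enzyme cleaving a FRET peptide substrate.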

Consider two compounds from ChEMBL document CHEMBL1201862, “PubChem BioAssay data set” (2004).

Each structure is given as a SMILES string. Activity calls are given as the source filed them.

Sequence of Nucleotide-binding oligomerization domain-containing protein 2 (Q9HC29 whole entry, the tested form may be a part): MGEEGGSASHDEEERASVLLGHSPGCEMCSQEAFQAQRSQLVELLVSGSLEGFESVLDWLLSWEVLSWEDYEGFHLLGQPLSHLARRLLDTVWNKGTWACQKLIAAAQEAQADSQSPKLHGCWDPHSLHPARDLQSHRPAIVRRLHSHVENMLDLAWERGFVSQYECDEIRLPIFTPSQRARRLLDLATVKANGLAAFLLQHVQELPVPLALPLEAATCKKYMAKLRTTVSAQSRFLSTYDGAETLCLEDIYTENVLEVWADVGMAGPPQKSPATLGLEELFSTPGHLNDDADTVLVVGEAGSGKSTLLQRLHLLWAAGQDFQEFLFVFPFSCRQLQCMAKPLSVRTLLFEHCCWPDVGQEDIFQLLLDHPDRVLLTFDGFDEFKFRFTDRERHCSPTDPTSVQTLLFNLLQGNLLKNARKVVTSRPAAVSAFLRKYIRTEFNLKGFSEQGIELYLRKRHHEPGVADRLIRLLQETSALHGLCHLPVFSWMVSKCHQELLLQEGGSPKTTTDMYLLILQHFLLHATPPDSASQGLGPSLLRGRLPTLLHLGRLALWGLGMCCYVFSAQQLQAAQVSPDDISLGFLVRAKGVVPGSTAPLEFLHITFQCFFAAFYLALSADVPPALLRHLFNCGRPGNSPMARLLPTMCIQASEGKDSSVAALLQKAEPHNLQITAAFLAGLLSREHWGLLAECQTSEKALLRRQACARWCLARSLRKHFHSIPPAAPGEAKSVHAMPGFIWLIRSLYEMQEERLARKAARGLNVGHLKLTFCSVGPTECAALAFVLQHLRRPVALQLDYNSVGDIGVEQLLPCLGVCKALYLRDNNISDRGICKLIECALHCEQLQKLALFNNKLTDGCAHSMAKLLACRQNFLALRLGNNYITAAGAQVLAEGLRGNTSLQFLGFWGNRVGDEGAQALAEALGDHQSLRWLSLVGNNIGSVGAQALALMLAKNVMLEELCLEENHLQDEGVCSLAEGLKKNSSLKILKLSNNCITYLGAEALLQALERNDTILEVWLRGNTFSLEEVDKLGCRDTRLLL

With `CCCCn1c(=O)c(C(=O)Nc2cnccn2)c(O)c2ccccc21`, the figures for the EC50 in assay [1] and in assay [4] were 3.1 µM (active) and 1.72 µM (active), respectively. Also, the IC50 in assay [2] is > 20 µM (inactive); in assay [3], > 20 µM (inactive); in assay [5], 7.07 µM (active); in [6], > 20 µM (inactive); in assay [7], 4.92 µM (active); in assay [8] it was 7.68 µM (active). In [10], the IC50 is > 20 µM (inactive). Also, the “Absolute IC50 (XBP1)” value in assay [9] came out at 10 µM.
For `O=C(Nc1nc2ccc(F)cc2s1)C1CCN(S(=O)(=O)c2cc([N+](=O)[O-])ccc2Cl)CC1`, the CC50 in assay [11] is 12 µM (active); in [17] it was 20.2 µM (active). The EC50 in assay [12] was 14.7 µM (active); in assay [14], 25.8 µM (active); in assay [16], 4.7 µM (active). Also, the IC50 in [13] was 2.34 µM (active); in assay [15], 2.37 µM (active); in [19], > 69.5 µM (inactive); in assay [20] it was > 7.72 µM (active). Besides, the AC50 in [18] was 8.24 µM (active).
